Experimental data from patent US8197860B2, “Method for enhancing nutrient absorption with astragalosides” (Nuliv Holding Inc., priority 2005, dated 2012).

Tests used:
Type in all cases: cell-based, human
Caco2 cells [1] = assay: Folate uptake assay; design: key to * (regulatory effect on folate uptake): ↑: the arrows that point up represent the enhancing effect on folate uptake; conditions: compound 0.1 μM; for Uptake rate (folate): 2 days, 5 μM folate, pH 6.0
Description: (§1) To evaluate the effect of the isolated astragaloside compound on the uptake of nutrient substances across the intestinal lumen, Caco-2 cells were grown on permeable filter as an experimental model. Caco2 cells originate from human colonic adenocarcinoma and spontaneously differentiate into an enterocyte-like phenotype after two weeks. The Caco-2 cell line, derived from a human colorectal carcinoma, has been used as an in vitro model system for studying drug absorption in gastrointestinal tract. These cells form monolayers with well-developed tight-junctions, and have been evaluated in details as an in vitro model to study both transcellular transport of nutrients and drugs in intestinal lumen.
(§2) Caco-2 cells were obtained from the ATCC (American Type Culture Collection). The cells were maintained in Dulbecco's modified Eagle medium (DMEM) containing 4.5 g/L glucose and 25 mM Hepes, supplemented with 10% fetal calf serum, 100 U/mL penicillin G and […]. The medium was changed every second day. The cells were routinely checked for Mycoplasma in monthly intervals. Caco-2 cells were cultured on semi-permeable membranes to differentiate into a highly functionalized epithelial barrier with remarkable morphological and biochemical similarity to the small intestinal columnar epithelium. The Caco-2 cell monolayers could therefore be used to study the membrane transport properties of many compounds. To trypsinize the cells, the culture dish was washed once with phosphate-buffered saline (PBS) followed by adding trypsine-EDTA for 10 minutes. The trypsinized cells were separated and filtered into single cells using a 35-μm strainer cap (Falcon 2235) before being seeded for further experiments.
(§3) Caco-2 cells (5×10^4) were seeded in a 48-well plate and maintained in culture medium (DMEM with 10% FBS, 1% nonessential amino acids, L-glutamine, penicillin G (100 U/mL), streptomycin (10 μg/mL), and amphotericin B (2.5 μg/mL) in a 37° C. incubator for 10 days for the cells to differentiate. The culture medium was changed once every two days. The cells were then washed with PBS before replenishing with the culture medium containing 5% FBS and various astragalosides at the indicated concentrations (0.01, 0.1 and 1 μM) for 48 hours. The Caco2 cells were washed out of remaining glucose with PBS and replaced in the glucose buffer (80 mM NaCl, 100 mM mannitol, 20 mM Tris-HCl, pH 7.4, 3 mM K2HPO4, 1 mM CaCl2, 1 mg/mL BSA) for 1 hour. Glucose uptake was initiated by replacing the glucose buffer with 0.2 ml of glucose buffer containing 2 μCi/mL of ^14C-glucose and unlabeled cold glucose to give a final glucose concentration of 25 mM. Glucose uptake was stopped by removing the glucose buffer and washing with PBS at designated time intervals. The cells were lysed in 0.2 mL of 0.2 N NaOH, and 20 μL of the cell lysate were transferred to the filter-bottomed UniFilter plates (Perkin-Elmer, Wellesley, Mass., USA) and dried in a vacuum oven at 37° C. The bottom of the UniFilter plate was sealed and 25 μL of the counting solution were added into each well. Adhesive plate sealers were used in place of the lids and radioactivity of each sample was counted using the microplate liquid scintillation counter (TopCount, Packard NXT, Packard BioScience Company, Meriden, Conn., USA). The amount of glucose accumulated in the cells was calculated and normalized to protein concentration, and uptake rate was expressed as nanomoles of glucose per minutes per milligram of cell protein (nmol/min/mg). Protein concentration was determined by a standard Bicinchoninic acid (BCA) protein assay. Nonspecific glucose uptake was measured by adding 2 μCi of L-[^14C]-glucose and subtracting from each determination to obtain specific glucose uptake.
The Caco2 cells were subjected to folate uptake test in a manner similar to that described in the glucose uptake assay in Example 1 above. […]

Caco-2 cell monolayer [2] = assay: Arginine absorption assay (transport across Caco-2 cell monolayer); design: key to * (regulatory effect on arginine transport): ↑: the arrows that point up represent the enhancing effect on the arginine transport; conditions: for Regulatory effects on the arginine transport across the Caco2 cell monolayer: Table 3 summary; for Transport rate (arginine): 10 mM L-arginine apical; for Arginine transport rate: concentration from 0.01 μM to 1 μM
Description: as §1, §2
(§4) In measuring transport of arginine across the Caco-2 cell monolayer, both sides of the transwells were washed with arginine incubation buffer consisting of: 137 mM NaCl, 10 mM Hepes, 0.3 mM NaH2PO4, 0.3 mM K2HPO4, 5.4 mM KCl, 2.8 mM CaCl2, 1 mM MgSO4, 10 mM glucose, adjusted to pH 7.4. Then, the cell layer was preincubated in the incubation buffer at 37° C. for 1 h. The volume of incubation buffer was 0.2 mL and 0.9 mL in the apical and basolateral chambers, respectively. The cells were replaced with fresh incubation medium in both chambers prior to the transport experiment. The transport experiment was initiated by replacing the incubation solution on the apical side with solution containing 10 mM of L-arginine in which 0.125 μCi/mL of L-[^3H]-arginine was included. At designated time intervals, 10 μL-solution samples were removed from the basolateral side and radioactivity of each sample was counted using a microplate liquid scintillation counter (TopCount, Packard NXT). During the experiment, when a 10 μL-solution sample was removed from the basolateral side every time, 10 μL buffer was supplemented to keep the volume constant. The uptake of [^3H]-mannitol was used to correct for nonspecific transport of molecules across the monolayer membrane. Results were expressed as the nanomoles of arginine transport across the Caco-2 cell monolayers with respect to time in minutes (nmol/min).

Caco-2 cell monolayer [3] = assay: Tryptophan absorption assay (transport across Caco-2 cell monolayer); design: key to * (regulatory effect on tryptophan transport): ↑: the arrows that point up represent the enhancing effect on the tryptophan transport; conditions: for Regulatory effects on the tryptophan transport across the Caco2 cell monolayer: Table 4 summary; for Tryptophan transport rate: concentration from 0.01 μM to 1 mM
Description: as §1, §2, §4
The experimental procedures similar to those in Example 2 were used for measuring the uptake of tryptophan molecules across the Caco-2 membrane, except using a tryptophan incubation buffer consisting of 137 mM choline chloride, 10 mM Hepes, 0.6 mM KH2PO4, 5.4 mM KCl, 2.8 mM CaCl2, 1 mM MgSO4, and 10 mM glucose, and having its pH adjusted to 7.4. Results were expressed as the nanomoles of tryptophan transport across the Caco-2 cell monolayers with respect to time in minutes (nmol/min).

Caco2 cells [4] = assay: Glucose uptake assay; design: key to * (regulatory effect on glucose uptake): ↑: the arrows that point up represent the enhancing effect on the glucose uptake; conditions: for Regulatory effects on the glucose uptake of the Caco2 cells: Table 2 summary; for Uptake rate (glucose): 48 hours, 25 mM glucose
Description: as §1, §2, §3

Structure (SMILES)	* (regulatory effect on folate uptake) (Caco2 cells [1])	Percentage (folate uptake vs own control) (Caco2 cells [1]) [%]	Uptake rate (folate) (Caco2 cells [1]) [pmol/mg/min]	Regulatory effects on the arginine transport across the Caco2 cell monolayer (Caco-2 cell monolayer [2])	* (regulatory effect on arginine transport) (Caco-2 cell monolayer [2]; compound 0.01 μM)	Percentage (arginine transport, control = 100) (Caco-2 cell monolayer [2]; compound 0.01 μM) [%]	Transport rate (arginine) (Caco-2 cell monolayer [2]; compound 0.01 μM) [nmol/min]	* (regulatory effect on arginine transport) (Caco-2 cell monolayer [2]; compound 0.1 μM)	Percentage (arginine transport, control = 100) (Caco-2 cell monolayer [2]; compound 0.1 μM) [%]	Transport rate (arginine) (Caco-2 cell monolayer [2]; compound 0.1 μM) [nmol/min]	* (regulatory effect on arginine transport) (Caco-2 cell monolayer [2]; compound 1 μM)	Percentage (arginine transport, control = 100) (Caco-2 cell monolayer [2]; compound 1 μM) [%]	Transport rate (arginine) (Caco-2 cell monolayer [2]; compound 1 μM) [nmol/min]	Arginine transport rate (Caco-2 cell monolayer [2])	Regulatory effects on the tryptophan transport across the Caco2 cell monolayer (Caco-2 cell monolayer [3])	* (regulatory effect on tryptophan transport) (Caco-2 cell monolayer [3]; compound 0.01 μM)	Percentage (tryptophan transport, control = 100) (Caco-2 cell monolayer [3]; compound 0.01 μM) [%]	Transport rate (tryptophan) (Caco-2 cell monolayer [3]; compound 0.01 μM) [nmol/min]	* (regulatory effect on tryptophan transport) (Caco-2 cell monolayer [3]; compound 0.1 μM)	Percentage (tryptophan transport, control = 100) (Caco-2 cell monolayer [3]; compound 0.1 μM) [%]	also measured
CC(C)(O)C1CC[C@](C)(C2[C@@H](O)C[C@@]3(C)C4C[C@H](OC5OC(CO)C(O)C(O)C5O)C5C(C)(C)[C@@H](O)CCC56CC46CC[C@]23C)O1 (stereo partly drawn) [AA, cycloastragenol 6-O-β-D-gluco-pyranose]	↑	158.52	84.030 ± 4.9410	had regulatory effects on the arginine transport	↑	199.66	21.3347 ± 1.7800	↑	170.48	18.2169 ± 1.8700	↑	162.06	17.3164 ± 1.6150	increased	had regulatory effects on the tryptophan transport	↑	133.08	11.900 ± 0.6231	↑	156.56	Transport rate (tryptophan) (Caco-2 cell monolayer [3]; compound 0.1 μM): 14.000 ± 0.6445 nmol/min; * (regulatory effect on tryptophan transport) (Caco-2 cell monolayer [3]; compound 1 μM): ↑; Percentage (tryptophan transport, control = 100) (Caco-2 cell monolayer [3]; compound 1 μM): 135.32%; Transport rate (tryptophan) (Caco-2 cell monolayer [3]; compound 1 μM): 12.100 ± 0.5197 nmol/min; Tryptophan transport rate (Caco-2 cell monolayer [3]): increased; Regulatory effects on the glucose uptake of the Caco2 cells (Caco2 cells [4]): had regulatory effects on the glucose uptake; * (regulatory effect on glucose uptake) (Caco2 cells [4]; compound 0.01 μM): ↑; Percentage (glucose uptake, control = 100) (Caco2 cells [4]; compound 0.01 μM): 179.69%; Uptake rate (glucose) (Caco2 cells [4]; compound 0.01 μM): 11.450 ± 3.2760 nmol/mg/min; * (regulatory effect on glucose uptake) (Caco2 cells [4]; compound 0.1 μM): ↑; Percentage (glucose uptake, control = 100) (Caco2 cells [4]; compound 0.1 μM): 146.67%; Uptake rate (glucose) (Caco2 cells [4]; compound 0.1 μM): 9.3460 ± 2.3210 nmol/mg/min; * (regulatory effect on glucose uptake) (Caco2 cells [4]; compound 1 μM): ↑; Percentage (glucose uptake, control = 100) (Caco2 cells [4]; compound 1 μM): 145.68%; Uptake rate (glucose) (Caco2 cells [4]; compound 1 μM): 9.2830 ± 2.1150 nmol/mg/min
CC(C)(O)[C@@H]1CC[C@](C)([C@H]2[C@@H](O)C[C@@]3(C)[C@@H]4C[C@H](O[C@@H]5O[C@H](CO)[C@@H](O)[C@H](O)[C@H]5O)[C@H]5C(C)(C)[C@@H](O[C@@H]6OC[C@@H](O)[C@H](O)[C@H]6O)CC[C@@]56C[C@@]46CC[C@]23C)O1 [AS4, astragaloside IV]	↑	135.12	75.710 ± 5.2390	had regulatory effects on the arginine transport	↑	156.52	16.7245 ± 0.2890	↑	172.73	18.4575 ± 0.5955	↑	161.19	17.2241 ± 0.3759	increased	had regulatory effects on the tryptophan transport	↑	113.29	10.130 ± 0.7025	↑	142.36	Transport rate (tryptophan) (Caco-2 cell monolayer [3]; compound 0.1 μM): 12.730 ± 0.4470 nmol/min; * (regulatory effect on tryptophan transport) (Caco-2 cell monolayer [3]; compound 1 μM): ↑; Percentage (tryptophan transport, control = 100) (Caco-2 cell monolayer [3]; compound 1 μM): 108.07%; Transport rate (tryptophan) (Caco-2 cell monolayer [3]; compound 1 μM): 9.6640 ± 0.2770 nmol/min; Tryptophan transport rate (Caco-2 cell monolayer [3]): increased; Glucose uptake rate versus control group (Caco2 cells [4]; FIG. 1, selected concentrations): much higher glucose uptake rate than the control group; Regulatory effects on the glucose uptake of the Caco2 cells (Caco2 cells [4]): had regulatory effects on the glucose uptake; * (regulatory effect on glucose uptake) (Caco2 cells [4]; compound 0.01 μM): ↑; Percentage (glucose uptake, control = 100) (Caco2 cells [4]; compound 0.01 μM): 183.15%; Uptake rate (glucose) (Caco2 cells [4]; compound 0.01 μM): 11.670 ± 2.5800 nmol/mg/min; * (regulatory effect on glucose uptake) (Caco2 cells [4]; compound 0.1 μM): ↑; Percentage (glucose uptake, control = 100) (Caco2 cells [4]; compound 0.1 μM): 164.16%; Uptake rate (glucose) (Caco2 cells [4]; compound 0.1 μM): 10.460 ± 2.6690 nmol/mg/min; * (regulatory effect on glucose uptake) (Caco2 cells [4]; compound 1 μM): ↑; Percentage (glucose uptake, control = 100) (Caco2 cells [4]; compound 1 μM): 141.27%; Uptake rate (glucose) (Caco2 cells [4]; compound 1 μM): 9.0020 ± 1.8300 nmol/mg/min
